In PMC11091889, “Silver Organometallics that are Highly Potent Thioredoxin and Glutathione Reductase Inhibitors: Exploring the Correlations of Solution Chemistry with the Strong Antibacterial Effects” (ACS Infectious Diseases, 2024):

Experiments:
[1] = Conductometry: molar conductivity of silver complexes in DMSO; type: physicochemical; details: 1.0 mM in DMSO, calculated as monocarbene (NHC)AgX
How it was run: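 Molar conductivity of each silver complex was measured at 1.0 mM in freshly distilled DMSO (specific conductivity ≤3 × 10^–8 S cm^–1) using an Apera Instruments EC9500 conductivity meter at 25 ± 2 °C. AgNO3 served as the 1:1 electrolyte reference, and readings were taken after dissolution to distinguish neutral monocarbene from ionic biscarbene forms.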

[2] = biological target: T1, glutathione reductase (GR) from E. coli (Escherichia coli, UniProt P06715); test: GR inhibition assay (DTNB reduction); type: biochemical; details: ± standard deviation, n = 3, 75 min preincubation
T1 construct: purchased Antibodies online
T1 sequence (P06715 1-450): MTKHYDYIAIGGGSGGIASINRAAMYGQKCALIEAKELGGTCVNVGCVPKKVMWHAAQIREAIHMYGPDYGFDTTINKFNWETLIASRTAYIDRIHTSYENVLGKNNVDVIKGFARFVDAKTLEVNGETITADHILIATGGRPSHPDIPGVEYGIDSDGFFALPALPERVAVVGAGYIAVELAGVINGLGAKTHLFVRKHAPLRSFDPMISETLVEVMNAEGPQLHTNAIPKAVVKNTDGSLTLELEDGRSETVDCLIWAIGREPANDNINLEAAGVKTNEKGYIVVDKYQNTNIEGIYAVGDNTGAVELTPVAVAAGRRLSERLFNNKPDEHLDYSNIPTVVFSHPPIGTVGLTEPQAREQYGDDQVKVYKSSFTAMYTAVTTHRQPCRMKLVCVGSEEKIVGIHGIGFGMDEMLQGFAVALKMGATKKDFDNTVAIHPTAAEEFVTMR
Protocol: The inhibition of purified E. coli thioredoxin reductase (TrxR) and glutathione reductase (GR) from both E. coli and baker’s yeast was determined according to a previously applied procedure.[59],[60]
The TrxR (E. coli) and GR (baker’s yeast and E. coli) inhibition assays were performed according to previously published procedures.[62],[75] The assays are partly based on the procedure developed by Lu et al.[60] and make use of the reduction of 5,5′-dithiobis(2-nitrobenzoic acid) (DTNB). Solutions of E. coli TrxR (35.4 U/mL) and E. coli thioredoxin (Trx) (156 μg/mL) (both purchased from Sigma-Aldrich) or baker’s yeast GR (0,08 U/mL, Sigma-Aldrich) or E. coli GR (4.2 U/ml, Antibodies online) and GSSG (0.28 mM, Sigma-Aldrich) in distilled water were prepared, as were fresh 2 mM stock solutions of the test compounds in DMSO. Then, solutions with several concentrations of the test compounds in DMSO were prepared, and 35 μL of each solution was diluted with 965 μL of TE buffer (Tris–HCl 50 mM, EDTA 1 mM, pH 7.5). These solutions (20 μL) or TE buffer without the test compounds (20 μL, as control) were mixed with the TrxR or GR solutions (10 μL), the Trx or GSSG solutions (10 μL), and a solution of NADPH (200 μM) in TE buffer (100 μL) in a well on a 96-well plate. As a blank solution, 200 μM NADPH in TE buffer (100 μL) mixed with a DMSO/buffer mixture (40 μL) was used (final concentrations of DMSO: 0.5% v/v). The plate was incubated for 75 min at 25 °C with moderate shaking. After incubation, 100 μL of a reaction mixture (TE buffer containing 200 μM NADPH and 5 mM DTNB) was added to each well to initiate the reaction. After thorough mixing, the formation of 5-TNB was monitored by a microplate reader at 405 nm in 35 s intervals (10 measurements). The values were corrected by subtraction of the blank solution absorption values. The increase in the concentration of 5-TNB followed a linear trend (r^2 ≥ 0.990), and the enzymatic activities were calculated as the gradients (increase in absorbance per second) thereof. […] The inhibition is presented as the mean IC50 values and standard deviations obtained in three independent experiments.

[3] = system: E. faecium (DSM 20477, ATCC 19434); test: Broth microdilution antibacterial assay; type: cell-based, Enterococcus faecium; details: n = 3, TSY; for MIC E. faecium / EC50: mean ± standard error; for MIC E. faecium / MIC E. faecium (value in brackets): 22 h; for EC50: read-out: EC50 E. faecium
How it was run: (§1)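 Broth microdilution used 2–8 × 10^5 CFU/mL inocula, with compounds serially diluted 64 to 1 μg/mL and incubated 22 h at 37 °C, read at 600 nm. A. baumannii, K. pneumoniae and P. aeruginosa were grown in MHB pH 7.4; E. faecium was grown in TSY pH 7.0–7.2. MIC and EC50 were obtained by curve fitting from three independent experiments.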

[4] = system: E. coli (DSM1116, ATCC 9637); test: microbe, parasite or virus in culture; type: cell-based, Escherichia coli; details: for MIC E. coli DSM 1116 in MHB + tryptone: Müller-Hinton Broth with tryptone (17 g/L); for MIC E. coli DSM 1116 in MHB + tryptone / MIC E. coli DSM 1116 in MHB + yeast extract / MIC E. coli DSM 1116 in MHB: ± SE; for MIC E. coli DSM 1116 in MHB + yeast extract: Müller-Hinton Broth with yeast extract (3 g/L); for MIC E. coli DSM 1116 in MHB: Müller-Hinton Broth without additive; for EC50 / MIC E. coli: mean ± standard error; for EC50 / MIC E. coli / MIC E. coli (value in brackets): n = 3, MHB; for MIC E. coli / MIC E. coli (value in brackets): 22 h
How it was run: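 Escherichia coli DSM1116 (ATCC 9637) was tested by broth microdilution in 96-well plates in duplicate, with compounds serially diluted from 64 to 1 μg/mL. Inocula of 2–8 × 10^5 CFU/mL were used in MHB (21 g/L Müller Hinton broth, pH 7.4), either alone or supplemented with tryptone (17 g/L) or yeast extract (3 g/L). After 22 h at 37 °C, absorbance at 600 nm was read. MIC and EC50 were obtained by curve fitting in Sigma Plot from three independent experiments, and ciprofloxacin served as the positive control.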

[5] = system: P. aeruginosa PA7 (DSM 24068); test: microbe, parasite or virus in culture; type: cell-based, Pseudomonas aeruginosa; details: n = 3, MHB; for MIC P. aeruginosa / EC50: mean ± standard error; for MIC P. aeruginosa / MIC P. aeruginosa (value in brackets): 22 h; for EC50: read-out: EC50 P. aeruginosa
How it was run: as §1

[6] = 25 mM in DMSO, dark, 24 h, visual inspection
Protocol: Because of the formation of black colloidal silver in the course of degradation, the solution stability of silver NHC complexes can be monitored visually and with the help of nephelometry. All synthesized complexes were dissolved at 25 mM in DMSO and kept in the dark for 24 h.
After the experiment, the DMSO stock solutions of compounds were kept away from direct light at room temperature for 24 h to monitor the stability of solutions.

Caco-2 cells = details: read-out: Cytotoxicity IC50 Caco-2; 24 h, almost confluent cell layers, highest concentration 100 μM
Protocol: Besides the antimicrobial effects, the toxic effects of silver ions have to be considered.[10],[12] As a primary evaluation of the cell toxicity triggered by silver NHC complexes, almost confluent cell layers of CaCo-2 cells were grown and challenged for 24 h with the silver complexes and also with the silver reference compounds AgNO3 and SSD (see Figure 6).
Caco-2 cells were grown as almost confluent monolayers in 96-well plates. The complexes were dissolved in wells of 96-well plates as stock solutions in DMSO (0.2% v/v) diluted with DMEM cell culture medium, which was supplemented with 10% fetal calf serum and 50 mg/L gentamicin. The cell layers were incubated with the drug containing media for 24 h at 37 °C/5% CO2 in an incubator. The cell viability was determined using crystal violet (0.02%) staining and was calculated as percentage of an untreated control. Results were obtained in three independent experiments.

| SMILES | Molar conductivity ΛM ([1]; 1 h after dissolution) [S cm^2 mol^–^1] | Molar conductivity ΛM ([1]; 24 h after dissolution) [S cm^2 mol^–^1] | IC50 [2] [µM] | MIC E. faecium [3] [µM] | EC50 [3] [µM] | MIC E. faecium (value in brackets) [3] [µg/mL] | MIC E. coli DSM 1116 in MHB + tryptone [4] [µM] | MIC E. coli DSM 1116 in MHB + yeast extract [4] [µM] | MIC E. coli DSM 1116 in MHB [4] [µM] | EC50 [4] [µM] | MIC E. coli [4] [µM] | MIC E. coli (value in brackets) [4] [µg/mL] | MIC P. aeruginosa [5] [µM] | EC50 [5] [µM] | MIC P. aeruginosa (value in brackets) [5] [µg/mL] | Solution stability (signs of degradation, precipitation, silver colloid) [6] | IC50 (Caco-2 cells) [µM] |
| --- | --- | --- | --- | --- | --- | --- | --- | --- | --- | --- | --- | --- | --- | --- | --- | --- | --- |
| CC(C)n1[c](=[Ag][Cl])n(Cc2ccccn2)c2ccccc21 [3a, Chlorido (1-Isopropyl-3-(pyridin-2-ylmethyl)-benzimidazol-2-ylidene) Silver(I)] | 3.34 | 2.91 | 0.032 ± 0.002 | 162 ± 0.0 | 139 ± 0.4 | 64 | 162.2 ± 0.0 | 162.2 ± 0.0 | 40.5 ± 0.0 | 35.3 ± 1.1 | 40.5 ± 0.0 | 16 | 81.1 ± 0.0 | 39.1 ± 8.8 | 32 |  |  |
| CC(C)n1[c](=[Ag][Br])n(Cc2ccccn2)c2ccccc21 [3b, Bromido (1-Isopropyl-3-(pyridin-2-ylmethyl)-benzimidazol-2-ylidene) Silver(I)] | 5.25 | 4.71 | 0.041 ± 0.007 | 146 ± 0.0 | 123 ± 0.4 | 64 | 145.7 ± 0.0 | 121.5 ± 24.3 | 36.4 ± 0.0 | 28.7 ± 3.6 | 36.4 ± 0.0 | 16 | 60.7 ± 12.1 | 30 ± 6.9 | 26 |  |  |
| CC(C)n1[c](=[Ag][I])n(Cc2ccccn2)c2ccccc21 [3c, Iodido (1-Isopropyl-3-(pyridin-2-ylmethyl)-benzimidazol-2-ylidene) Silver(I)] | 8.15 | 7.62 | 0.039 ± 0.006 | 65.8 ± 0.0 | 60.9 ± 0.1 | 32 | 54.9 ± 11.0 | 43.9 ± 11.0 | 11.0 ± 2.7 | 8.8 ± 2.5 | 11.0 ± 2.7 | 5 | 11.0 ± 2.7 | 6 ± 1 | 5 | did not show clear signs of degradation | > 100 |
| COCCn1[c](=[Ag][I])n(Cc2ccccn2)c2ccccc21 [4c, Iodido (1-(2-Methoxyethyl)-3-(pyridin-2-ylmethyl)-benzimidazol-2-ylidene) Silver(I)] | 7.18 | 8.83 |  | > 128 | > 128 | > 64 |  |  |  | 14.4 ± 2.7 | 21.2 ± 5.3 | 11 | 18.6 ± 7.0 | 4.9 ± 1.2 | 9 | did not show clear signs of degradation | > 100 |
